Consider 27 compounds from US12637435B2, “Nitrogen-containing heterocyclic compound or salt thereof, use thereof, and intermediate thereof” (FUJIFILM Corporation, priority 2020, dated 2026).

In one test the target is T1, recombinant human DHODH (Homo sapiens, UniProt Q02127).
T1 construct: DHODH, 31-395aa, Human, His tag, E. coli, ATGP1615; His tag; purchased ATGen Co. Ltd. ATGP1615; host or cells: E. coli
Kind of test: DHODH enzyme reaction inhibition test (DCIP-coupled assay). It is filed as biochemical. Particulars: recombinant human DHODH 0.175 μg/mL, DCIP absorbance 600 nm, 50 minutes, pH 8.0; read-out: Enzyme reaction inhibitory effect (IC50). Here is the method:
The DHODH enzyme assay was carried out with reference to “Benjamin Bader, Wolfgang Knecht, Markus Fries, and Monika Loffler, Expression, Purification, and Characterization of Histidine-Tagged Rat and Human Flavoenzyme Dihydroorotate Dehydrogenase, Protein Expression and Purification, 1998, 13, 414-422.”
The DHODH activity was evaluated using an enzyme assay system that is coupled with an assay in which a blue coloring agent 2,6-dichlorophenolindophenol (DCIP, available from MP Biomedicals, LLC, MP150118) is quenched. Purified recombinant human DHODH (DHODH, 31-395aa, Human, His tag, E. coli, ATGP1615) was purchased from ATGen Co. Ltd. The enzyme assay was carried out in a 384-well plate using a buffer solution containing 100 mmol/L Hepes (available from Dojindo Laboratories, 342-01375), 400 mmol/L NaCl (available from FUJIFILM Wako Pure Chemical Corporation, 191-01665), 10% Glycerol (available from FUJIFILM Wako Pure Chemical Corporation, 075-00616), 0.05% Triton X-100 (available from Sigma-Aldrich Co., LLC, T8787-100ML), 0.2 mmol/L Ubiquinone-10 (available from FUJIFILM Wako Pure Chemical Corporation, 216-00761), 0.1 mmol/L DHO (L-dihydroorotic acid, available from Sigma-Aldrich Co., LLC, D7128), 0.5% DMSO (dimethylsulfoxide, available from FUJIFILM Wako Pure Chemical Corporation, 047-29353), 0.175 μg/mL DHODH, and 0.12 mmol/L DCIP and having a pH adjusted to 8.0 by adding 5 mol/L potassium hydroxide (available from FUJIFILM Wako Pure Chemical Corporation, 168-21815). A test compound with a predetermined concentration was added using Biomek NX (available from Beckman Coulter Inc.), and the enzyme reaction was started by adding the substrate. The enzyme activity was assessed by measuring the decrease in DCIP absorbance (600 nm) for 50 minutes using an EnVision plate-reading spectrophotometer (available from PerkinElmer, Inc.).
The enzyme reaction inhibition rate at each test compound concentration was determined, and the 50% enzyme reaction inhibition concentration [IC50 (nmol/L)] was calculated using XLfit. Enzyme reaction inhibition rate (%)=(amount of luminescence in test compound-added well)/(amount of luminescence in DMSO-added well)×100
The abbreviations in the table have the following meanings. • A: IC50 value<10 nmol/L • B: 10 nmol/L≤IC50 value<100 nmol/L • C: 100 nmol/L≤IC50 value

Test [1] deals with human myeloid leukemia cell line HL60. Description: Cell growth test, HL60 (CellTiter-Glo). Type of test: cell-based. The settings on record: HL-60, 72 h, HL60 cells, 3 days, CellTiter-Glo luminescence, read-out: Cell growth inhibitory effect (GI50). Here is the method:
The cell growth test was carried out using the human myeloid leukemia cell line HL60 (available from ATCC, CRL-240). As a culture medium of HL60 cells, RPMI 1640 (available from FUJIFILM Wako Pure Chemical Corporation, 189-02025) supplemented with 10% fetal bovine serum (available from Thermo Fisher Scientific, Inc., 10437-028), and 1% penicillin-streptomycin (10,000 U/mL, available from Thermo Fisher Scientific, Inc., 15140-122) was used. HL60 cells were seeded on a 384-well plate (available from Corning Inc., 4588) at a cell density of 1×10^3 cells/20 μL/well. After culturing overnight, 5 μL of the test compound having a predetermined concentration was added, and 3 days later, 25 μL of CellTiter-Glo (registered trademark) Luminescent Cell Viability Assay (available from Promega Corporation, G7573) was added, and then the amount of luminescence was measured using an EnVision plate reader (available from PerkinElmer, Inc.). Since the amount of luminescence is proportional to the intracellular concentration of adenosine triphosphate (ATP), the amount of luminescence was used as an indicator of the number of viable cells. The growth inhibitory concentration for each test compound concentration was calculated by the following expression.
The growth inhibition rate at each test compound concentration was determined, and the 50% growth inhibitory concentration [GI50 (nmol/L)] was calculated using XLfit. Growth inhibition rate (%)=(amount of luminescence in test compound-added well)/(amount of luminescence in DMSO-added well)×100
The abbreviations in the table have the following meanings. • A: GI50 value<100 nmol/L • B: 100 nmol/L≤GI50 value<1,000 nmol/L • C: 1,000 nmol/L≤GI50 value
(ATP-based viability assays read luminescence as a measure of living cells.)

The subject of a further test is HL60 subcutaneous tumor. Kind of test: In vivo drug efficacy test in cancer-bearing mouse model with subcutaneous transplantation of HL60. Particulars: HL60 subcutaneous xenograft, female NOD/scid mice, oral 2.5 to 10 mg/kg once a day for 10 to 12 days. From the text: (Drug Efficacy Test in Cancer-Bearing Mouse Model with Subcutaneous Transplantation of HL60)
The human acute myeloid leukemia cell line HL60 (available from JCRB) was suspended in a mixture of RPMI-1640 culture medium and Matrigel (available from Corning Inc.), and then subcutaneously transplanted into 6-week-old female NOD/scid mice (available from CLEA Japan, Inc.). The test compound was dispersed in a solvent (0.5% aqueous methylcellulose solution), and from the time when tumor engraftment was visually confirmed, the test compound was orally administered to mice at a dose of 2.5 to 10 mg/kg once a day for 10 to 12 days. A solvent administration group to which a 0.5% aqueous methylcellulose solution was administered was provided as a negative control. The tumor diameter was measured over time and the tumor volume was calculated. The tumor volume was calculated by measuring the major axis and the minor axis of the tumor and using the following expression. Tumor volume (mm^3)=[major axis (mm)×minor axis (mm)×minor axis (mm)]/2
T/C (%) was calculated from the average tumor volume of each group by the following expression, and the drug efficacy was evaluated. T/C (%)=(average tumor volume of drug-administered group)/(average tumor volume of solvent-administered group)×100%

T1 sequence (Q02127 31-395): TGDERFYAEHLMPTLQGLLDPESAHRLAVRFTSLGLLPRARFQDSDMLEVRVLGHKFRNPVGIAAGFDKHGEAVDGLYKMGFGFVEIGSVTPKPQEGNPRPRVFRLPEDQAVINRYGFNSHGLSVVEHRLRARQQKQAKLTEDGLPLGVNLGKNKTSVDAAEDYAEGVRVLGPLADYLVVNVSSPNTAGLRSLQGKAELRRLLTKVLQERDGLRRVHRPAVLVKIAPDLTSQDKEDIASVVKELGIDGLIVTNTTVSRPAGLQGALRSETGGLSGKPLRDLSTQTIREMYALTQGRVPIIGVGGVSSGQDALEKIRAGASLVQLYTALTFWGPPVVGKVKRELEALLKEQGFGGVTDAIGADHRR

In the case of `CS(=O)(=O)NC(=O)c1nc(C2CC2)cnc1Nc1cccc(C2CCOCC2)c1OCC(F)(F)F` [Example 3-30], on recombinant human DHODH, the IC50 (as a rule, the point on the concentration scale where inhibition reaches its midpoint) was less than 10 nM. Besides, in test [1], the GI50 (commonly the concentration that inhibits growth by half) is less than 100 nM. Also, the “tumor growth inhibition rate (T/C from tumor volume)” value (“tumor growth inhibition rate” for short) in the test on HL60 subcutaneous tumor is “excellent tumor growth inhibition rate”.

As for `CS(=O)(=O)NC(=O)c1nc(C2CC2)cnc1Nc1cccc(C2=CCOCC2)c1OCC(F)(F)F` [Example 1-2, 6-cyclopropyl-3-((3-(3,6-dihydro-2H-pyran-4-yl)-2-(2,2,2-trifluoroethoxy)phenyl)amino)-N-(methylsulfonyl)pyrazine-2-carboxamide], the IC50 on recombinant human DHODH is less than 10 nM. For the same compound, in test [1], the 50% growth inhibitory concentration (GI50) is less than 100 nM. Also, the “tumor growth inhibition rate” value in the test on HL60 subcutaneous tumor was “excellent tumor growth inhibition rate”.

For `CS(=O)(=O)NC(=O)c1cc(C2CC2)cnc1Nc1cccc(C2CCOCC2)c1OCC(F)(F)F` [Example 3-34], the IC50 on recombinant human DHODH is less than 10 nM. For the same compound, in test [1], the GI50 was less than 100 nM.

As to `C[C@H](Oc1c(Nc2ncc(C3CC3)nc2C(=O)NS(C)(=O)=O)cccc1C1=CCCOC1)C(F)(F)F` [Example 3-62], the IC50 at recombinant human DHODH is 10 to 100 nM. The GI50 in test [1] is 100 to 1000 nM.

Turning to `CS(=O)(=O)NC(=O)c1cc(C2CC2)ncc1Nc1cccc(C2=CCOCC2)c1OCC(F)(F)F` [Example 3-61], on recombinant human DHODH, the half-maximal inhibitory concentration (IC50) was less than 10 nM. The GI50 in test [1] fell in the range of 100 to 1000 nM.

In the case of `CCCc1c(Nc2ncc(C3CC3)nc2C(=O)NS(N)(=O)=O)cccc1C1CCOCC1` [Example 3-26], the concentration for half-maximal inhibition (IC50) at recombinant human DHODH was less than 10 nM. For the same compound, the GI50 in test [1] was less than 100 nM.

Turning to `N#Cc1ccc(-c2cccc(Nc3ncc(C4CC4)nc3C(=O)O)c2OCC(F)(F)F)cc1` [Example 2-4], the half-inhibitory concentration (IC50) on recombinant human DHODH is less than 10 nM. The 50% growth inhibitory concentration (GI50) in test [1] was less than 100 nM.

`CCc1c(Nc2ncc(C3CC3)cc2C(=O)NS(C)(=O)=O)cccc1C1CCOCC1` [Example 3-47]: the IC50 on recombinant human DHODH was less than 10 nM. In addition, the GI50 in test [1] is 100 to 1000 nM.

For the compound `N#CNC(=O)c1cc(C2CC2)cnc1Nc1cccc(C2CCOCC2)c1OCC(F)(F)F` [Example 3-6], on recombinant human DHODH, the IC50 is less than 10 nM. Further, in test [1], the GI50 was less than 100 nM.

Turning to `CCOc1c(Nc2ncc(C3CC3)cc2C(=O)O)ccc(F)c1C1=CCOCC1` [Example 2-15], on recombinant human DHODH, the IC50 was less than 10 nM. Also, the GI50 in test [1] is less than 100 nM.

In the case of `NS(=O)(=O)NC(=O)c1cc(C2CC2)cnc1Nc1cccc(C2CCOCC2)c1OCC(F)(F)F` [Example 3-35], the concentration for half-maximal inhibition (IC50) at recombinant human DHODH is less than 10 nM. In test [1], the GI50 was less than 100 nM.

Turning to `CCc1c(Nc2ncc(C3CC3)nc2C(=O)NS(C)(=O)=O)cccc1C1CCOCC1` [Example 3-48], on recombinant human DHODH, the IC50 fell in the range of 10 to 100 nM. Further, in test [1], the GI50 lay within 100 to 1000 nM.

For `CCc1c(Nc2ncc(C3CC3)cc2C(=O)O)cccc1C1CCOCC1` [Example 2-10], the 50% inhibitory concentration (IC50) at recombinant human DHODH was less than 10 nM. The 50% growth inhibitory concentration (GI50) in test [1] is less than 100 nM.

For the compound `CN(C)NC(=O)c1nc(C2CC2)cnc1Nc1cccc(C2=CCOCC2)c1OCC(F)(F)F` [Example 1-13, 6-cyclopropyl-3-((3-(3,6-dihydro-2H-pyran-4-yl)-2-(2,2,2-trifluoroethoxy)phenyl)amino)-N,N-dimethylpyrazine-2-carbohydrazide], the IC50 on recombinant human DHODH was no less than 100 nM. Further, the concentration for 50% growth inhibition (GI50) in test [1] is no less than 1000 nM.

For the compound `N#Cc1ccc(-c2cccc(Nc3ncc(C4CC4)cc3C(=O)NS(N)(=O)=O)c2OCC(F)(F)F)cc1` [Example 3-37], the IC50 at recombinant human DHODH is less than 10 nM. Further, in test [1], the 50% growth inhibitory concentration (GI50) was less than 100 nM.

As for `CCOc1c(Nc2ncc(C3CC3)nc2C(=O)NS(C)(=O)=O)cccc1C1=CCOCC1` [Example 3-57], the IC50 on recombinant human DHODH was less than 10 nM. Besides, the 50% growth inhibitory concentration (GI50) in test [1] was less than 100 nM.

As to `O=C(O)c1cc(C2CC2)cnc1Nc1cc(F)cc(C2CCOCC2)c1OC(F)F` [Example 2-3], the IC50 at recombinant human DHODH is less than 10 nM. The GI50 in test [1] was less than 100 nM.

On to `CCOc1c(Nc2ncc(C3CC3)cc2C(=O)NS(C)(=O)=O)ccc(F)c1C1=CCOCC1` [Example 3-60], for which the 50% inhibitory concentration (IC50) at recombinant human DHODH is less than 10 nM. The GI50 in test [1] was less than 100 nM.

`CS(=O)(=O)NC(=O)c1cc(C2CC2)cnc1Nc1cccc(-c2ccc(C#N)cc2)c1OCC(F)(F)F` [Example 3-36]: on recombinant human DHODH, the half-maximal inhibitory concentration (IC50) was less than 10 nM. Besides, in test [1], the concentration for 50% growth inhibition (GI50) is less than 100 nM.

Take `CCOc1c(C2=CCOCC2)ccc(F)c1Nc1ncc(C2CC2)cc1C(=O)O` [Example 2-14]: the IC50 on recombinant human DHODH is less than 10 nM. In addition, in test [1], the GI50 is 100 to 1000 nM.

With `C[C@H](Oc1c(Nc2nnc(C3CC3)cc2C(=O)NS(C)(=O)=O)cccc1C1CCOCC1)C(F)(F)F` [Example 3-63], the IC50 at recombinant human DHODH lay in the range of 10 to 100 nM. In test [1], the GI50 was no less than 1000 nM.

In the case of `Cc1ccc(-c2cccc(Nc3ncc(C4CC4)nc3C(=O)NS(C)(=O)=O)c2OCC(F)(F)F)c(C)n1` [Example 3-15], the IC50 at recombinant human DHODH lay within 10 to 100 nM. The GI50 in test [1] was in the range of 100 to 1000 nM.

With `CS(=O)(=O)NC(=O)c1nc(C2CC2)cnc1Nc1cccc(-c2ccc(F)cc2)c1OCC(F)(F)F` [Example 3-56], at recombinant human DHODH, the IC50 was less than 10 nM. The GI50 in test [1] was less than 100 nM.

As to `O=C(O)c1cc(C2CC2)ncc1Nc1cccc(C2=CCOCC2)c1OCC(F)(F)F` [Example 2-16], the IC50 at recombinant human DHODH is less than 10 nM. Besides, in test [1], the concentration for 50% growth inhibition (GI50) was 100 to 1000 nM.

As for `C[C@H](Oc1c(Nc2ncc(C3CC3)nc2C(=O)NC#N)cccc1C1=CCOCC1)C(F)(F)F` [Example 3-31], the IC50 on recombinant human DHODH is less than 10 nM. Besides, the GI50 in test [1] is less than 100 nM.

Turning to `N#Cc1ccc(-c2cccc(Nc3ncc(C4CC4)nc3C(=O)NS(N)(=O)=O)c2OCC(F)(F)F)cc1` [Example 3-41], the IC50 at recombinant human DHODH was less than 10 nM. For the same compound, in test [1], the GI50 is less than 100 nM. Also, the “tumor growth inhibition rate” value with HL60 subcutaneous tumor was “excellent tumor growth inhibition rate”.

Take `CN(C)S(=O)(=O)NC(=O)c1nc(C2CC2)cnc1Nc1cccc(C2=CCOCC2)c1OCC(F)(F)F` [Example 3-11]: the IC50 at recombinant human DHODH was no less than 100 nM. Moreover, the GI50 in test [1] is no less than 1000 nM.
